Data set [1] relates to Mouse ear fibroblasts (MearF). As to the kind of experiment: MTT viability of Doxorubicin-induced senescent and non-senescent murine ear fibroblasts. It is filed as cell-based, C57BL/6J mice. Conditions: for EC50: Mus musculus, Fibroblast. From the text: IMR90 and WI38 lung fibroblasts were purchased from ECACC‐Merck. Human bone marrow (BM)‐derived mesenchymal stromal cells (MSCs) were purchased from Lonza. Human umbilical vein endothelial cells (HUVECs) are primary cells obtained from a pool of donors purchased from Clonetics (Lonza). Murine ear fibroblasts (MearFs) were obtained from C57BL/6J mice maintained in the INRCA “Specific Pathogen Free” (SPF) animal facility. MCF7 breast cancer cells were purchased from ATCC. For dose–response curves, IMR90 and WI38 were induced to senescence through replicative passages; MSCs, HUVECs, and MearFs senescence was induced with Doxorubicin; MCF7 senescence was induced with 4‐Hydroxytamoxifen (Lee et al. [2014]). The EC50 was calculated using GraphPad Prism 10 software. All treatment specifications are reported in the extended section.
Cell viability was determined using an MTT assay. Absorbance was measured using a NB‐12‐0035 Microplate Reader (NeoBiotech Co.). Data are expressed as a percentage of viability compared with untreated cells.
Murine ear fibroblasts (MearFs) were obtained from C57BL/6J mice maintained in the INRCA "Specific Pathogen Free" (SPF) animal facility. The ear biopsies (2 mm radius) were obtained with a dedicated puncher, and cells recovered as previously described (Malavolta et al. 2022). Cells were seeded at a density of 5000/cm^2 in T75 flasks (Corning Costar, Sigma Aldrich, St. Louis, MO, USA) and maintained at 37°C in a 95% humidified incubator with 5% CO2. Culture was carried out in RPMI (Euroclone, Milano, Italy) supplemented with 10% Fetal Calf Serum (FCS, Sigma-Aldrich, St. Louis, MO, USA), 2mM L-Glutamine, 100 U/mL penicillin and […] streptomycin (all from Sigma- Aldrich, St. Louis, MO, USA). At approximately 80% confluence, the cells were detached from the plate by incubation with trypsin-EDTA (Sigma-Aldrich, St. Louis, MO, USA) for 5 min at 37 °C and re-plated. For Doxorubicin-induced senescence, cells were seeded in a 96-well plate at a 5000 cells/cm2 density. MSC cells were treated with 100 nM Doxorubicin (DOX) for 24 h and then maintained with medium for 4 days; HUVECs were treated with 50 nM DOX for 24 h and then maintained with medium for 4 days. MearFs were induced to senescence by continuous exposure (5 days) to 75 nM DOX. […]
Cell viability assay. Cell viability has been determined with MTT (3-(4,5-dimethylthiazol-2-yl)-2, 5-diphenyltetrazolium bromide) assay. […] Insoluble formazan salts produced were solubilized with DMSO incubation, and then absorbance was measured at 540 nm using a microplate reader (NB-12-0035 Microplate Reader, NeoBiotech Co., Seoul, Republic of Korea). Data are expressed as a percentage of viability compared with untreated cells (the control group has been considered 100% of viability).

The test system of another data set is p16-3MR mice. As to the kind of experiment: Pilot study in aged p16-3MR mice (safety, bioluminescence, ear biopsy markers, cytokines). It is filed as in vivo. How it is done:
Sections were prepared from organs and ear biopsies from snap‐frozen tissues and mounted on SuperFrost Plus slides (VWR). SA‐β‐gal staining was performed according to the manufacturer's instructions for the Sigma‐Aldrich‐QIA117 staining kit (Sigma‐Aldrich). Nuclei were counterstained with Nuclear Fast Red (Sigma‐Aldrich), and images were acquired using a Zeiss AxioCam HRc mounted on a Leitz Laborlux S light microscope. The percentage of senescent cells was determined with QuPath v. 0.3.2 (Bankhead et al. [2017]).
All experiments were performed per the European Community Council Directives of 2010/63/UE. The pilot study (PS) investigated safety and potential senolytic efficacy, and the Extended study (ES) investigated functional changes, pathological phenotype, and the principal organ targeted by K5. Protocols were approved according to current Italian law (D.Lgs. n. 26/2014) by OPBA (animal care and health committee) of IRCCS INRCA and by the General Direction of Animal Health and Veterinary Drugs of the Italian Ministry of Health with authorization n°‐137/2021‐PR for PS and authorization n°‐370/2022‐PR for ES. In the PS of p16‐3MR mice (26 months), bioluminescence associated with p16‐expression was monitored before and after treatment, and the health of the mice was longitudinally studied. The ES used geriatric C57BL/6J mice (31 months). Clinical health and physical performance were analyzed before and after K5 treatment. Subsequently, the animals were euthanized, gross necropsies were performed, and organs were collected for further analysis. Detailed protocols are reported in the extended section.
Blood samples were collected from the right retroorbital plexus. Glucose (GLUC), creatinine (CREA), aspartate aminotransferase (AST/GOT), and alanine aminotransferase (ALT/GPT) were determined in EDTA‐plasma by using an automated analyzer (Cobas Mira, Roche) according to the manufacturer's instructions. Cytokines were measured in EDTA‐plasma using the ProcartaPlex Mouse Cytokine & Chemokine Panel 1, 26plex (Thermofisher) and read in the Luminex 200 instrument (Bio‐Rad), following the producer's recommendation.
Total RNA was extracted from ear biopsies using the RNeasy kit (Qiagen) according to the manufacturer's instructions and quantified by NanoDrop. β‐actin, p‐21, and p‐53 gene expression levels were analyzed on a BioRad iQ5 optical RT‐PCR (BioRad).
Experimental animals' bioluminescence imaging (BLI) was performed with an IVIS Spectrum system (PerkinElmer). Mice were intraperitoneally injected with Xenolight RediJect Coelenterazine h (PerkinElmer), and bioluminescent images were obtained with mice in the dorsal and ventral positions; the Living Image software quantified bioluminescence acquired by the CCD camera.
. To explore the safety of K5 and its potential impact on the aging process, p16-3MR mice were longitudinally studied in this pilot experiment. They were monitored once a month until natural death using a non-invasive protocol designed to assess their clinical health and physical performance across various functional domains associated with frailty. Additionally, to provide an initial overview of K5 effects on senescent cells, non-invasive and exploratory analyses (senescence markers in ear biopsies, p16 expression measured by in vivo bioluminescence assay, and circulating cytokine profile) were performed before the start of the treatment (T0) and after 20 days following the end of K5 administration (T1).
Circulating cytokines assay. Blood samples were collected from the right retroorbital plexus of anesthetized mice. Blood samples were deposited in serum separator gel tubes (Microvette CB300, Sarstedt) and centrifuged (1000 × g, 10 min) for serum separation. Concentrations of glucose (GLUC), creatinine (CREA), aspartate aminotransferase (AST/GOT), and alanine aminotransferase (ALT/GPT) were determined in EDTA-plasma by using an automated analyzer (Cobas Mira, Roche) according to the manufacturer's instructions. […]

For orientation: EC50 means the concentration giving half of the maximal effect.

Where two headings read alike, the source gives them in different places.

For `Cc1ccccc1-n1c(=O)n(Cc2ccccc2)c(=O)c2[nH]cnc21` [Compound K5, 1-benzyl-3-(2-methylphenyl)-7H-purine-2,6-dione], the “Senolytic evidence (no, partly/yes)” value in data set [1] (DNA damage (Doxorubicin)) was “No”. The “difference in vitality, DOXO-induced senescent vs non-senescent proliferating cells” value in data set [1] (MTT) was “no discernible difference”. In data set [1] (DNA damage (Doxorubicin), MTT, read-out: EC50 senescent cells), the EC50 was > 500 µM. Also, in data set [1] (MTT, read-out: EC50 proliferating cells), the EC50 was > 500 µM. Moreover, in the data set with p16-3MR mice (10 mg/kg i.p., p16-3MR mice), the “median lifespan of treated animals, females” value is 953 ± 35 days and the “median lifespan of treated animals, males” value is reported as 1097 ± 78 days. Besides, the “adverse reactions, behavioral stereotypes, mortality after administration” value in the data set on p16-3MR mice (10 mg/kg i.p., three injections over three consecutive days) is “did not induce any adverse reactions”. In the data set on p16-3MR mice (T1, 10 mg/kg i.p.), the “SA-β-gal activity in ear biopsies” value is reported as “reduction”. Further, in the data set with p16-3MR mice (T1 vs T0, 10 mg/kg i.p.), the “circulating IL-1β” value was “trend (p < 0.01) toward decreased”; the “circulating IL-6” value is given as “reduction”; the “p16 expression by in vivo bioluminescence, ventral and dorsal signals” value is on record as “significant reduction”; the “p21 mRNA expression in ear biopsies” value is listed as “decreasing trend”. Also, the “p53 mRNA expression in ear biopsies” value in the data set with p16-3MR mice (T1 vs T0, 10 mg/kg i.p.) was “reduction in p53 expression at T1 was statistically significant”.

The values above are taken from PMC12266748, “A Xanthine Derivative With Novel Heat Shock Protein 90‐Alpha Inhibitory and Senolytic Properties” (Aging Cell, 2025).
